Experimental data taken from ChEMBL document CHEMBL4229457, “Mechanism underlying inhibitory effect of six dicaffeoylquinic acid isomers on melanogenesis and the computational molecular modeling studies” (Bioorg Med Chem, 2018).
Active and inactive are the calls of the source. The rule behind the calls is not given here.

Key:
[1] = target: T1, Tyrosinase (Mus musculus) (UniProt P11344); conditions: at 25 µM
T1 sequence (whole entry): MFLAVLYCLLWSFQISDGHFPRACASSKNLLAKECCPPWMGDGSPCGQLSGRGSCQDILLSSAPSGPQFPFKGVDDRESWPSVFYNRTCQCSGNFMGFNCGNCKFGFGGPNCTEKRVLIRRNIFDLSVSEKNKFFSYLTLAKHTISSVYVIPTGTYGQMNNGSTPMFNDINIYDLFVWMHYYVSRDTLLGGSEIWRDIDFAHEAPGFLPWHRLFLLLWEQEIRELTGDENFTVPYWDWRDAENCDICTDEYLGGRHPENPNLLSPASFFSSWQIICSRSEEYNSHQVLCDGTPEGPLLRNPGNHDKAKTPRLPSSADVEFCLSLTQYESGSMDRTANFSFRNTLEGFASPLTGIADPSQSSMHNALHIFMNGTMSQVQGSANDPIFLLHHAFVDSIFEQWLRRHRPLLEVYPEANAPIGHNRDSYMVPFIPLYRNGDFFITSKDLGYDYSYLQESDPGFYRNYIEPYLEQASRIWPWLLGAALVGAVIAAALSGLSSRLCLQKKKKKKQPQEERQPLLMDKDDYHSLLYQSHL
Description: Inhibition of tyrosinase in mouse B16-F1 cell lysates assessed as reduction in melanin production at 25 uM using L-DOPA as substrate incubated for 30 mins followed by substrate addition measured after 30 mins

B16-F1 [2] = assay: Cytotoxicity against mouse B16-F1 cells assessed as reduction in cell viability at 25 uM after 72 hrs by MTT assay; assay type: cell-based; conditions: b16-f1, 72 h
B16-F1 [3] = assay: Inhibition of alpha-MSH-stimulated melanogenesis in mouse B16-F1 cells assessed as reduction in intracellular melanin production at 25 uM after 72 hrs relative to control; assay type: functional; conditions: B16-F1, 72 h
B16-F1 [4] = assay: Inhibition of adenylate cyclase in alpha-MSH-stimulated mouse B16-F1 cells assessed as reduction in cAMP-CREB signaling pathway-mediated DCT expression level at 25 uM after 48 to 72 hrs by Western blot analysis; assay type: cell-based
B16-F1 [5] = assay: Inhibition of adenylate cyclase in alpha-MSH-stimulated mouse B16-F1 cells assessed as reduction in cAMP-CREB signaling pathway-mediated TYR expression level at 25 uM after 48 to 72 hrs by Western blot analysis; assay type: cell-based
B16-F1 [6] = assay: Inhibition of adenylate cyclase in alpha-MSH-stimulated mouse B16-F1 cells assessed as reduction in cAMP-CREB signaling pathway-mediated TRP1 expression level at 25 uM after 48 to 72 hrs by Western blot analysis; assay type: cell-based
B16-F1 [7] = assay: Inhibition of adenylate cyclase in alpha-MSH-stimulated mouse B16-F1 cells assessed as reduction in cAMP-CREB signaling pathway-mediated MITF expression level at 25 uM after 48 to 72 hrs by Western blot analysis; assay type: cell-based
B16-F1 [8] = assay: Downregulation of adenylate cyclase protein expression level in alpha-MSH-stimulated mouse B16-F1 cells at 25 uM by Western blot analysis; assay type: functional, cell-based
B16-F1 [9] = assay: Inhibition of adenylate cyclase in alpha-MSH-stimulated mouse B16-F1 cells assessed as reduction in CREB phosphorylation at 25 uM measured up to 360 mins by Western blot analysis; assay type: cell-based
[10] = Inhibition of melanogenesis in HEMn assessed as reduction in intracellular melanin production at 1 uM after 72 hrs relative to control; assay type: functional; conditions: Homo sapiens
[11] = target: T2, Tyrosinase (Homo sapiens) (UniProt P14679); assay: Inhibition of tyrosinase in HEMn lysates assessed as reduction in melanin production using L-DOPA as substrate incubated for 30 mins followed by substrate addition measured after 30 mins
T2 sequence (whole entry): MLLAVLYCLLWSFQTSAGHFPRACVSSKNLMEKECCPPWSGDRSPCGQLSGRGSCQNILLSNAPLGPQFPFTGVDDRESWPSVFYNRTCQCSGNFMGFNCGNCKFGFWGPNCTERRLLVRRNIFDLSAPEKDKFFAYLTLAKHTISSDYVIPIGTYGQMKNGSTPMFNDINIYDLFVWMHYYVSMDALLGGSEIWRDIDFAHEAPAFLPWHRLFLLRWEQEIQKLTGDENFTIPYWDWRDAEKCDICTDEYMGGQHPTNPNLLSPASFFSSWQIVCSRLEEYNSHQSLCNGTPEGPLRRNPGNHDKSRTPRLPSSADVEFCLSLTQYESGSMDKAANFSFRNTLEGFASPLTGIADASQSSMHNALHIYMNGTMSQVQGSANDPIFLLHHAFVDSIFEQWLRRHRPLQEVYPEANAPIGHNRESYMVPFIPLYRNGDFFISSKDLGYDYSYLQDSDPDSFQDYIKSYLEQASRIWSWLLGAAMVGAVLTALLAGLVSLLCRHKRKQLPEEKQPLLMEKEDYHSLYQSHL

Mus musculus [12] = species on record: Mus musculus; assay: Inhibition of adenylate cyclase in mouse B16-F1 cell lysates assessed as reduction in alpha-MSH-induced cAMP levels incubated for 6 hrs followed by forskolin stimulation measured after 30 mins by immuno assay
Mus musculus [13] = species on record: Mus musculus; assay: Inhibition of adenylate cyclase in mouse B16-F1 cell lysates assessed as reduction in forskolin-induced cAMP levels incubated for 6 hrs followed by forskolin stimulation measured after 30 mins by immuno assay
[14] = Inhibition of melanogenesis in HEMn assessed as reduction in intracellular melanin production at 10 uM after 72 hrs relative to control; assay type: functional; conditions: Homo sapiens
[15] = Inhibition of melanogenesis in HEMn assessed as reduction in intracellular melanin production at 5 uM after 72 hrs relative to control; assay type: functional; conditions: Homo sapiens
[16] = Inhibition of melanogenesis in HEMn assessed as reduction in intracellular melanin production at 25 uM after 72 hrs relative to control; assay type: functional; conditions: Homo sapiens

O=C(/C=C/c1ccc(O)c(O)c1)O[C@@H]1[C@H](O)C[C@@](O)(C(=O)O)C[C@H]1OC(=O)/C=C/c1ccc(O)c(O)c1
inhibition [1]: > 20% | Activity (B16-F1 [2]): Non-Toxic | inhibition at 25 µM (B16-F1 [3]): 26% | inhibition (B16-F1 [4]): Active | inhibition (B16-F1 [5]): Active

OC[C@H]1O[C@@H](Oc2ccc(O)cc2)[C@H](O)[C@@H](O)[C@@H]1O [ARBUTIN]
inhibition [1]: Active | inhibition at 25 µM (B16-F1 [3]): 34%

O=C(/C=C/c1ccc(O)c(O)c1)O[C@@H]1C[C@](O)(C(=O)O)C[C@@H](OC(=O)/C=C/c2ccc(O)c(O)c2)[C@H]1O
inhibition [1]: > 20% | Activity (B16-F1 [2]): Non-Toxic | inhibition (B16-F1 [6]): Active | inhibition at 25 µM (B16-F1 [3]): 26% | inhibition (B16-F1 [7]): Active | inhibition (B16-F1 [4]): Active | inhibition (B16-F1 [5]): Active

O=C(/C=C/c1ccc(O)c(O)c1)OC1[C@H](O)CC(OC(=O)/C=C/c2ccc(O)c(O)c2)(C(=O)O)C[C@@H]1O (stereo not given in full)
inhibition [1]: > 20% | Activity (B16-F1 [2]): Non-Toxic | inhibition at 25 µM (B16-F1 [3]): 18% | inhibition (B16-F1 [4]): Active | inhibition (B16-F1 [5]): 92%

O=C(/C=C/c1ccc(O)c(O)c1)O[C@H]1[C@H](O)C[C@@](O)(C(=O)O)C[C@H]1OC(=O)/C=C/c1ccc(O)c(O)c1
Activity (B16-F1 [8]): inactive | inhibition (B16-F1 [9]): Active | inhibition [1]: > 20% | Activity (B16-F1 [2]): Non-Toxic | inhibition at 1 µM [10]: 7.7% | inhibition [11]: Dose-dependent effect | inhibition (Mus musculus [12]): Dose-dependent effect | inhibition (Mus musculus [13]): Dose-dependent effect | inhibition at 10 µM [14]: 25.8% | inhibition (B16-F1 [6]): Active | inhibition at 5 µM [15]: 11.2% | inhibition at 25 µM (B16-F1 [3]): 84% | inhibition (B16-F1 [7]): 91% | inhibition at 25 µM [16]: 51.2% | inhibition (B16-F1 [4]): Active | inhibition (B16-F1 [5]): Active

O=C(/C=C/c1ccc(O)c(O)c1)O[C@H]1C[C@@](OC(=O)/C=C/c2ccc(O)c(O)c2)(C(=O)O)C[C@H](O)[C@@H]1O
inhibition [1]: > 20% | Activity (B16-F1 [2]): Non-Toxic | inhibition at 25 µM (B16-F1 [3]): 26% | inhibition (B16-F1 [4]): Active | inhibition (B16-F1 [5]): 66%

O=C(/C=C/c1ccc(O)c(O)c1)O[C@@H]1C[C@@](OC(=O)/C=C/c2ccc(O)c(O)c2)(C(=O)O)C[C@@H](O)[C@@H]1O [CYNARIN]
inhibition [1]: > 20% | Activity (B16-F1 [2]): Non-Toxic | inhibition at 25 µM (B16-F1 [3]): 61% | inhibition (B16-F1 [4]): Active | inhibition (B16-F1 [5]): 72%
